From article PMC12207590, “Substrate Specificity of the Organic Cation Transporters MATE1 and MATE2K and Functional Overlap with OCT1 and OCT2” (Journal of Medicinal Chemistry, 2025)
Read-outs that look alike come from different tables or passages of the source.

Key:
MATE1 [1] = target: T1, MATE1 (Homo sapiens, UniProt Q96FL8); experiment: Uptake ratio in MATE1-overexpressing HEK293 cells vs empty vector (2.5 μM, 1 min, HPLC-MS/MS); assay type: cell-based; settings: for MATE1: uptake ratio MATE1-overexpressing vs empty-vector HEK293 cells, mean; for MATE1 ratio in this study: Table S1
T1 sequence (Q96FL8 1-570): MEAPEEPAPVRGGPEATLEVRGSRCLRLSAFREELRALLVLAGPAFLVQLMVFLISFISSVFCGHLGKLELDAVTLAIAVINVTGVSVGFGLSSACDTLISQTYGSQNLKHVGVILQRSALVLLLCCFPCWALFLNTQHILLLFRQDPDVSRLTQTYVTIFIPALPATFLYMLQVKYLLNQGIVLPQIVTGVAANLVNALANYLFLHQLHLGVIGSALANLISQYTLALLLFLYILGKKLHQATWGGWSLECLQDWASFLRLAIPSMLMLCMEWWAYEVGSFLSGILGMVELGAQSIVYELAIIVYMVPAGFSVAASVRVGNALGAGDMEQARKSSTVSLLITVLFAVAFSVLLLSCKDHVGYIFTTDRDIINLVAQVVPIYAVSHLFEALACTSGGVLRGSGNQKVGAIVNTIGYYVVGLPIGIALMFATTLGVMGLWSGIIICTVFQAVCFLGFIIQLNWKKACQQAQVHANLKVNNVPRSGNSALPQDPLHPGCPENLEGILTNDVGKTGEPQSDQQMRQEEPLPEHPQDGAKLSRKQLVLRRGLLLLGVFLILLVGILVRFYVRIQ

[2] = human; cited from earlier work
MATE2K [3] = target: T2, MATE2K (Homo sapiens, UniProt Q86VL8); experiment: Uptake ratio in MATE2K-overexpressing HEK293 cells vs empty vector (2.5 μM, 1 min, HPLC-MS/MS); assay type: cell-based; settings: for MATE2: uptake ratio MATE2K-overexpressing vs empty-vector HEK293 cells, mean; for MATE2K ratio in this study: Table S1
T2 sequence (Q86VL8 1-566 isoform Q86VL8-3): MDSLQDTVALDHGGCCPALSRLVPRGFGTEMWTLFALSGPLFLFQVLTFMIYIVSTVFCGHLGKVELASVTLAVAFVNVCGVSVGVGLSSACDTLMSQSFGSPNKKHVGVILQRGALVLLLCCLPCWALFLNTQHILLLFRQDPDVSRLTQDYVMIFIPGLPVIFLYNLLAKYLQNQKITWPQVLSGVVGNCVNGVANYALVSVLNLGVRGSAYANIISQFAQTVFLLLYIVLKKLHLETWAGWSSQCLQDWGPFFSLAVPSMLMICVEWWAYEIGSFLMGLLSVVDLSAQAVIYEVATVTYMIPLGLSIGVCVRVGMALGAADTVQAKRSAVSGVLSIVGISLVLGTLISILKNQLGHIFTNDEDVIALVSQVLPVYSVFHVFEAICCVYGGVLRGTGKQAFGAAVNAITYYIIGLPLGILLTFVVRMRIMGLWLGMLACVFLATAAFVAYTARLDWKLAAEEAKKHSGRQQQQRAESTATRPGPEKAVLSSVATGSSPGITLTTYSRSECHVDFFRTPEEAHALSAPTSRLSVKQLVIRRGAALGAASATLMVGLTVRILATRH

hCMEC [4] = experiment: TS MDAI hCMEC (Table S2); assay type: cell-based, human; set-up: scale not given here; settings: Table S2
hCMEC [5] = experiment: TS DPH hCMEC (Table S2); assay type: cell-based, human; set-up: scale not given here; settings: Table S2
[6] = tested on: MATE1, MATE2K, OCT1, OCT2; experiment: Substrate specificity and overlap among the four transporters (ratio cutoff 2); assay type: cell-based, human; settings: transport ratio cutoff of 2
MATE2K [7] = target: T2, MATE2K; experiment: Concentration-dependent uptake (Michaelis-Menten) via MATE2K in HEK293 cells; settings: HEK293, 1 min, net uptake; for Km: read-out: MATE2K KM
MATE1 [8] = target: T1, MATE1; experiment: Concentration-dependent uptake (Michaelis-Menten) via MATE1 in HEK293 cells; settings: HEK293, 1 min, net uptake; for Km: read-out: MATE1 KM
[9] = fold uptake over empty vector, 2.5 μM, 1 min

SMILES	MATE1 ratio (MATE1 [1]; [9])	MATE1 (MATE1 [1]; 2.5 μM, 1 min)	eliminated unchanged via the kidneys [2]	MATE2K ratio (MATE2K [3]; [9])	MATE2 (MATE2K [3]; 2.5 μM, 1 min)	TS MDAI hCMEC (hCMEC [4])	TS DPH hCMEC (hCMEC [5])	Substrate specificity among MATE1, MATE2K, OCT1, OCT2 [6]	MATE2K Vmax (MATE2K [7])	Km (MATE2K [7])	MATE1 Vmax (MATE1 [8])	Km (MATE1 [8])	further results
N[C@@H](CC(=O)N1CCn2c(nnc2C(F)(F)F)C1)Cc1cc(F)c(F)cc1F [Sitagliptin]	4.17	4.17	more than 70%	2.77	2.77								MATE1 ratio (MATE1 [1]; fold uptake over empty vector, 2.5 μM, 1 min, listed as sitagliptin): above 2
CNC(=C[N+](=O)[O-])NCCSCc1ccc(CN(C)C)o1 [Ranitidine]	18.91	18.91	more than 70%	8.62	8.62	1.24	1.26						MATE1 ratio (MATE1 [1]; fold uptake over empty vector, 2.5 μM, 1 min, listed as ranitidine): above 2
C[N@+]1(CC2CC2)CC[C@]23c4c5ccc(O)c4O[C@H]2C(=O)CC[C@@]3(O)[C@H]1C5 [Methylnaltrexone]						0.84	1.11	All four transporters	41.6 pmol × mg protein^–1 × min^–1	86.8 µM	55.8 pmol × mg protein^–1 × min^–1	17.9 µM	
CCN1CCCC1CNC(=O)c1cc(S(=O)(=O)CC)c(N)cc1OC (stereo not drawn) [Amisulpride]	11.04		more than 70%	11.15		0.91	0.89		710 pmol × mg protein^–1 × min^–1	39.9 µM	238 pmol × mg protein^–1 × min^–1	10.6 µM	MATE1 ratio (MATE1 [1]; fold uptake over empty vector, 2.5 μM, 1 min, listed as amisulpride): above 2; MATE1 (uptake ratio) (MATE1 [1]; mean ratio of uptake in MATE1-overexpressing HEK293 cells vs empty vector, 2.5 μM, 1 min): 11.04; MATE2 (uptake ratio) (MATE2K [3]; mean ratio of uptake in MATE2K-overexpressing HEK293 cells vs empty vector, 2.5 μM, 1 min): 11.15
CC(C)NCC(O)COc1ccc(COCCOC(C)C)cc1 (stereo not drawn) [Bisoprolol]			50%			0.35	0.32						
CN[C@@H]1CCc2[nH]c3ccc(C(N)=O)cc3c2C1 [Frovatriptan]	34.35			31.50		0.88	0.83	All four transporters	869 pmol × mg protein^–1 × min^–1	11.2 µM	4568 pmol × mg protein^–1 × min^–1	70.4 µM	
COc1cc(Cc2cnc(N)nc2N)cc(OC)c1OC [trimethoprim]		1.52			1.23			OCT1 only					
Cc1ncc(C[n+]2csc(CCO)c2C)c(N)n1 [Thiamine]		33.42			10.63			All four transporters	109.2 pmol × mg protein^–1 × min^–1	17.3 µM	599 pmol × mg protein^–1 × min^–1	17.2 µM	MATE1 ratio in this study (MATE1 [1]; 2.5 μM, 1 min): 33.42; MATE2K ratio in this study (MATE2K [3]; 2.5 μM, 1 min): 10.63
Nc1ccn([C@H]2CC[C@@H](CO)O2)c(=O)n1 [Zalcitabine]	above 2	12.98	more than 70%		1.22				linear		10,171 pmol × mg protein^–1 × min^–1	1560 µM	MATE1 ratio in this study (MATE1 [1]; 2.5 μM, 1 min): 12.98; MATE2K ratio in this study (MATE2K [3]; 2.5 μM, 1 min): 1.22
C#CCN[C@@H]1CCc2ccccc21 [Rasagiline]	1.18	1.18		2.16	2.16	0.51	0.54	specific for only OCT2 and MATE2K	linear		194 pmol × mg protein^–1 × min^–1	167 µM	
COc1ccc2c3c1O[C@H]1C(=O)CC[C@@]4(O)[C@@H](C2)NCC[C@]314 [Noroxycodone]								OCT1 only					MATE1 ratio (MATE1 [1]): 1.39; MATE2K ratio (MATE2K [3]): 1.13
COc1ccc(OC)c(C(O)CNC(=O)CN)c1 (stereo not drawn) [Midodrine]	4.53			1.43		1.02	1.05	MATE1 only					
Cc1ncc(CO)c(CN)c1O [Pyridoxamine]	2.68	2.68		1.36	1.36			MATE1 only	989.5 pmol × mg protein^–1 × min^–1	1550 µM	5442 pmol × mg protein^–1 × min^–1	1690 µM	
